{"source": "patent US8207193B2", "about": "(priority 2006, dated 2012)", "data": [{"target": "human muscarinic acetylcholine M3 receptor (M3-ACh) (Homo sapiens, UniProt P20309)", "sequence (P20309 whole entry)": "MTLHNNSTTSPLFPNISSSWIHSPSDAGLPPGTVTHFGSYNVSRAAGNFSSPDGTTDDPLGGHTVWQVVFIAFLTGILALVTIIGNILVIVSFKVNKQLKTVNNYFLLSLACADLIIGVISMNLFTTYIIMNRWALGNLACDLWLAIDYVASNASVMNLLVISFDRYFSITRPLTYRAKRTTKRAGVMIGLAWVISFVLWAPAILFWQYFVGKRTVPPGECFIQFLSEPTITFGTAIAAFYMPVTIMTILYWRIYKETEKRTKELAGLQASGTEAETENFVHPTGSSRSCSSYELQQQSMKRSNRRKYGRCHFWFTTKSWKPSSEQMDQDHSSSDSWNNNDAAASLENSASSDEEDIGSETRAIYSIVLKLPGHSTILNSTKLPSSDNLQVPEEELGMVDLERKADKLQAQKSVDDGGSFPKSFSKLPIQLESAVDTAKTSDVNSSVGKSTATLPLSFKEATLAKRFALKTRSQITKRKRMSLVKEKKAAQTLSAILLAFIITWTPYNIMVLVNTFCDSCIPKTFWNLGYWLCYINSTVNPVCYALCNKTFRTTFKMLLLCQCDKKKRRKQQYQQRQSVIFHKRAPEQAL", "test": "biochemical", "type": "binding", "settings": "M3 binding IC50", "units": {"IC50": "nM"}, "values": [{"smiles": "O=C(O[C@H]1C[N+]2(CCOc3ccccc3)CCC1CC2)C1(c2ccccc2)CCCCCC1", "note": "[Example 11, (3R)-1-(2-Phenoxyethyl)-3-{[(1-phenylcycloheptyl)carbonyl]oxy}-1-azoniabicyclo[2.2.2]octane bromide]", "IC50": "< 2"}, {"smiles": "N#Cc1ccc(CC[N+]23CCC(CC2)[C@@H](OC(=O)C2(c4ccccc4)CCCCCC2)C3)cc1", "note": "[Example 29, (3R)-1-[2-(4-Cyanophenyl)ethyl]-3-{[(1-phenylcycloheptyl)carbonyl]oxy}-1-azoniabicyclo[2.2.2]octane Bromide]", "IC50": "2 to 10"}, {"smiles": "O=C(O[C@H]1C[N+]2(Cc3ccc(C(F)(F)F)o3)CCC1CC2)C1(c2ccccc2)CCCCCC1", "note": "[Example 9, (3R)-3-{[(1-Phenylcycloheptyl)carbonyl]oxy}-1-{[5-(trifluoromethyl)-2-furyl]methyl}-1-azoniabicyclo[2.2.2]octane Bromide]", "IC50": "> 10"}, {"smiles": "O=C(O[C@H]1C[N+]2(CCc3cccc(C(F)(F)F)c3)CCC1CC2)C1(c2ccccc2)CCCCCC1", "note": "[Example 27, (3R)-3-{[(1-Phenylcycloheptyl)carbonyl]oxy}-1-{2-[3-(trifluoromethyl)phenyl]ethyl}-1-azoniabicyclo[2.2.2]octane Bromide]", "IC50": "< 2"}, {"smiles": "O=C(C[N+]12CCC(CC1)[C@@H](OC(=O)C1(c3ccccc3)CCCCCC1)C2)Nc1cccnn1", "note": "[Example 17, (3R)-1-[2-Oxo-2-(pyridazin-3-ylamino)ethyl]-3-{[(1-phenylcycloheptyl)carbonyl]oxy}-1-azoniabicyclo[2.2.2]octane Bromide]", "IC50": "< 2"}, {"smiles": "O=C(O[C@H]1C[N+]2(CCc3ccc4c(c3)OCO4)CCC1CC2)C1(c2ccccc2)CCCCCC1", "note": "[Example 28, (3R)-1-[2-(1,3-Benzodioxol-5-yl)ethyl]-3-{[(1-phenylcycloheptyl)carbonyl]oxy}-1-azoniabicyclo[2.2.2]octane bBromide]", "IC50": "< 2"}, {"smiles": "O=C(O[C@H]1C[N+]2(CCOCc3ccccc3)CCC1CC2)C1(c2ccccc2)CCCCCC1", "note": "[Example 12, (3R)-1-[2-(Benzyloxy)ethyl]-3-{[(1-phenylcycloheptyl)carbonyl]oxy}-1-azoniabicyclo[2.2.2]octane Bromide]", "IC50": "< 2"}, {"smiles": "O=C1c2ccccc2C(=O)N1CC[N+]12CCC(CC1)[C@@H](OC(=O)C1(c3ccccc3)CCCCCC1)C2", "note": "[Example 30, (3R)-1-[2-(1,3-Dioxo-1,3-dihydro-2H-isoindol-2-yl)ethyl]-3-{[(1-phenylcycloheptyl)carbonyl]oxy}-1-azoniabicyclo[2.2.2]octane Bromide]", "IC50": "> 10"}, {"smiles": "O=C(C[N+]12CCC(CC1)[C@@H](OC(=O)C1(c3ccccc3)CCCCCC1)C2)NCCOc1ccccc1", "note": "[Example 18, (3R)-1-{2-Oxo-2-[(2-phenoxyethyl)amino]ethyl}-3-{[(1-phenylcycloheptyl)carbonyl]oxy}-1-azoniabicyclo[2.2.2]octane Bromide]", "IC50": "< 2"}, {"smiles": "COc1ccc(CC[N+]23CCC(CC2)[C@@H](OC(=O)C2(c4ccccc4)CCCCCC2)C3)cc1Cl", "note": "[Example 38, (3R)-1-[2-(3-Chloro-4-methoxyphenyl)ethyl]-3-{[(1-phenylcycloheptyl)carbonyl]oxy}-1-azoniabicyclo[2.2.2]octane Bromide]", "IC50": "< 2"}, {"smiles": "NC(=O)C[N+]12CCC(CC1)[C@@H](OC(=O)C1(c3ccccc3)CCCCCC1)C2", "note": "[Example 36, (3R)-1-(2-Amino-2-oxoethyl)-3-{[(1-phenylcycloheptyl)carbonyl]oxy}-1-azoniabicyclo[2.2.2]octane Bromide]", "IC50": "< 2"}, {"smiles": "O=C(O[C@H]1C[N+]2(Cc3ccc(F)cc3)CCC1CC2)C1(c2ccccc2)CCCCCC1", "note": "[Example 5, (3R)-1-(4-Fluorobenzyl)-3-{[(1-phenylcycloheptyl)carbonyl]oxy}-1-azoniabicyclo[2.2.2]octane Bromide]", "IC50": "> 10"}, {"smiles": "Cc1cc(NC(=O)C[N+]23CCC(CC2)[C@@H](OC(=O)C2(c4ccccc4)CCCCCC2)C3)on1", "note": "[Example 39, (3R)-1-{2-[(3-Methylisoxazol-5-yl)amino]-2-oxoethyl}-3-{[(1-phenylcycloheptyl)carbonyl]oxy}-1-azoniabicyclo[2.2.2]octane Bromide]", "IC50": "< 2"}, {"smiles": "C[N+]12CCC(CC1)[C@@H](OC(=O)C1(c3ccccc3)CCCCCC1)C2", "note": "[Example 2, (3R)-1-Methyl-3-{[(1-phenylcycloheptyl)carbonyl]oxy}-1-azoniabicyclo[2.2.2]octane Iodide]", "IC50": "2 to 10"}, {"smiles": "Cc1cc(NC(=O)C[N+]23CCC(CC2)[C@@H](OC(=O)C2(c4ccccc4)CCCCCC2)C3)no1", "note": "[Example 20, (3R)-1-{2-[(5-Methylisoxazol-3-yl)amino]-2-oxoethyl}-3-{[(1-phenylcycloheptyl)carbonyl]oxy}-1-azoniabicyclo[2.2.2]octane Bromide]", "IC50": "< 2"}, {"smiles": "O=C(O[C@H]1C[N+]2(CCc3cccc(Cl)c3)CCC1CC2)C1(c2ccccc2)CCCCCC1", "note": "[Example 35, (3R)-1-[2-(3-Chlorophenyl)ethyl]-3-{[(1-phenylcycloheptyl)carbonyl]oxy}-1-azoniabicyclo[2.2.2]octane bromide]", "IC50": "< 2"}, {"smiles": "O=C(O[C@H]1C[N+]2(Cc3ccc(F)c(F)c3)CCC1CC2)C1(c2ccccc2)CCCCCC1", "note": "[Example 8, (3R)-1-(3,4-Difluorobenzyl)-3-{[(1-phenylcycloheptyl)carbonyl]oxy}-1-azoniabicyclo[2.2.2]octane Bromide]", "IC50": "> 10"}, {"smiles": "O=C(C[N+]12CCC(CC1)[C@@H](OC(=O)C1(c3ccccc3)CCCCCC1)C2)Nc1cncc(Cl)n1", "note": "[Example 31, (3R)-1-{2-[(6-Chloropyrazin-2-yl)amino]-2-oxoethyl}-3-{[(1-phenylcycloheptyl)carbonyl]oxy}-1-azoniabicyclo[2.2.2]octane Bromide]", "IC50": "< 2"}, {"smiles": "O=C(O[C@H]1C[N+]2(CCc3ccc4ccccc4c3)CCC1CC2)C1(c2ccccc2)CCCCCC1", "note": "[Example 23, (3R)-1-[2-(2-Naphthyl)ethyl]-3-{[(1-phenylcycloheptyl)carbonyl]oxy}-1-azoniabicyclo[2.2.2]octane Bromide]", "IC50": "< 2"}, {"smiles": "O=C(C[N+]12CCC(CC1)[C@@H](OC(=O)C1(c3ccccc3)CCCCCC1)C2)Nc1ccon1", "note": "[Example 4, (3R)-1-[2-(Isoxazol-3-ylamino)-2-oxoethyl]-3-{[(1-phenylcycloheptyl)carbonyl]oxy}-1-azoniabicyclo[2.2.2]octane Bromide]", "IC50": "< 2"}, {"smiles": "O=C(C[N+]12CCC(CC1)[C@@H](OC(=O)C1(c3ccccc3)CCCCCC1)C2)c1cccc(F)c1", "note": "[Example 19, (3R)-1-[2-(3-Fluorophenyl)-2-oxoethyl]-3-{[(1-phenylcycloheptyl)carbonyl]oxy}-1-azoniabicyclo[2.2.2]octane Bromide]", "IC50": "< 2"}, {"smiles": "O=C(C[N+]12CCC(CC1)[C@@H](OC(=O)C1(c3ccccc3)CCCCCC1)C2)NCCCc1ccccc1", "note": "[Example 37, (3R)-1-{2-Oxo-2-[(3-phenylpropyl)amino]ethyl}-3-{[(1-phenylcycloheptyl)carbonyl]oxy}-1-azoniabicyclo[2.2.2]octane Bromide]", "IC50": "2 to 10"}, {"smiles": "O=C(O)C[N+]12CCC(CC1)[C@@H](OC(=O)C1(c3ccccc3)CCCCCC1)C2", "note": "[Example 34, (3R)-1-(Carboxymethyl)-3-{[(1-phenylcycloheptyl)carbonyl]oxy}-1-azoniabicyclo[2.2.2]octane Bromide]", "IC50": "> 10"}, {"smiles": "COc1cccc(C[N+]23CCC(CC2)[C@@H](OC(=O)C2(c4ccccc4)CCCCCC2)C3)c1", "note": "[Example 10, (3R)-1-(3-Methoxybenzyl)-3-{[(1-phenylcycloheptyl)carbonyl]oxy}-1-azoniabicyclo[2.2.2]octane Bromide]", "IC50": "2 to 10"}, {"smiles": "O=C(C[N+]12CCC(CC1)[C@@H](OC(=O)C1(c3ccccc3)CCCCCC1)C2)N1CCOCC1", "note": "[Example 15, (3R)-1-(2-Morpholin-4-yl-2-oxoethyl)-3-{[(1-phenylcycloheptyl)carbonyl]oxy}-1-azoniabicyclo[2.2.2]octane Bromide]", "IC50": "2 to 10"}, {"smiles": "Cc1ccc(CC[N+]23CCC(CC2)[C@@H](OC(=O)C2(c4ccccc4)CCCCCC2)C3)s1", "note": "[Example 25, (3R)-1-[2-(5-Methyl-2-thienyl)ethyl]-3-{[(1-phenylcycloheptyl)carbonyl]oxy}-1-azoniabicyclo[2.2.2]octane Bromide]", "IC50": "< 2"}, {"smiles": "O=C(O[C@H]1C[N+]2(Cc3cccc(OC(F)(F)F)c3)CCC1CC2)C1(c2ccccc2)CCCCCC1", "note": "[Example 7, (3R)-3-{[(1-Phenylcycloheptyl)carbonyl]oxy}-1-[3-(trifluoromethoxy)benzyl]-1-azoniabicyclo[2.2.2]octane Bromide]", "IC50": "> 10"}]}, {"target": "human muscarinic acetylcholine M3 receptor (M3-ACh) (Homo sapiens, UniProt P20309)", "test": "biochemical", "type": "binding", "settings": "pIC50", "units": {"IC50": "nM"}, "values": [{"smiles": "C[N+]12CCC(CC1)[C@@H](OC(=O)C1(c3ccccc3)CCCCCC1)C2", "note": "[Example 2, (3R)-1-Methyl-3-{[(1-phenylcycloheptyl)carbonyl]oxy}-1-azoniabicyclo[2.2.2]octane Iodide]", "IC50": 3.16}, {"smiles": "O=C(C[N+]12CCC(CC1)[C@@H](OC(=O)C1(c3ccccc3)CCCCCC1)C2)Nc1ccon1", "note": "[Example 4, (3R)-1-[2-(Isoxazol-3-ylamino)-2-oxoethyl]-3-{[(1-phenylcycloheptyl)carbonyl]oxy}-1-azoniabicyclo[2.2.2]octane Bromide]", "IC50": 0.0631}, {"smiles": "COc1cccc(C[N+]23CCC(CC2)[C@@H](OC(=O)C2(c4ccccc4)CCCCCC2)C3)c1", "note": "[Example 10, (3R)-1-(3-Methoxybenzyl)-3-{[(1-phenylcycloheptyl)carbonyl]oxy}-1-azoniabicyclo[2.2.2]octane Bromide]", "IC50": 3.16}]}, {"target": "human muscarinic acetylcholine M3 receptor (M3-ACh) (Homo sapiens, UniProt P20309)", "test": "biochemical", "type": "binding", "settings": "pIC50 of comparative compounds containing a cyclohexyl (C6) ring in place of cycloheptyl (C7)", "units": {"IC50": "nM"}, "values": [{"smiles": "O=C(C[N+]12CCC(CC1)[C@@H](OC(=O)C1(c3ccccc3)CCCCC1)C2)Nc1cnccn1", "note": "[compound 6, (3R)-1-[2-Oxo-2-(pyrazin-2-ylamino)ethyl]-3-{[(1-phenylcyclohexyl)carbonyl]oxy}-1-azoniabicyclo[2.2.2]octane Bromide, reference compound]", "IC50": 0.2}]}, {"target": "human muscarinic acetylcholine M3 receptor (M3-ACh) (Homo sapiens, UniProt P20309)", "test": "biochemical", "type": "binding", "settings": "pIC50 of comparative compounds containing a cyclooctyl (C8) ring in place of cycloheptyl (C7)", "units": {"IC50": "nM"}, "values": [{"smiles": "C[N+]12CCC(CC1)[C@@H](OC(=O)C1(c3ccccc3)CCCCCCC1)C2", "note": "[compound 8, (3R)-1-Methyl-3-{[(1-phenylcyclooctyl)carbonyl]oxy}-1-azoniabicyclo[2.2.2]octane Iodide, reference compound]", "IC50": 39.8}, {"smiles": "O=C(C[N+]12CCC(CC1)[C@@H](OC(=O)C1(c3ccccc3)CCCCCCC1)C2)Nc1cnccn1", "note": "[compound 9, (3R)-1-[2-Oxo-2-(pyrazin-2-ylamino)ethyl]-3-{[(1-phenylcyclooctyl)carbonyl]oxy}-1-azoniabicyclo[2.2.2]octane Bromide, reference compound]", "IC50": 0.316}]}, {"target": "human muscarinic acetylcholine M3 receptor (M3-ACh) (Homo sapiens, UniProt P20309)", "test": "biochemical", "type": "binding", "settings": "pIC50 of comparative compounds containing a cyclopentyl (C5) ring in place of cycloheptyl (C7)", "units": {"IC50": "nM"}, "values": [{"smiles": "C[N+]12CCC(CC1)[C@@H](OC(=O)C1(c3ccccc3)CCCC1)C2", "note": "[Comparative Example 2, (3R)-1-Methyl-3-{[(1-phenylcyclopentyl)carbonyl]oxy}-1-azoniabicyclo[2.2.2]octane Iodide, reference compound]", "IC50": 39.8}]}, {"target": "human muscarinic acetylcholine M3 receptor (M3-ACh) (Homo sapiens, UniProt P20309)", "test": "biochemical", "type": "binding", "settings": "pIC50 of cycloheptyl (C7) compound", "units": {"IC50": "nM"}, "values": [{"smiles": "C[N+]12CCC(CC1)[C@@H](OC(=O)C1(c3ccccc3)CCCCCC1)C2", "note": "[Example 2, (3R)-1-Methyl-3-{[(1-phenylcycloheptyl)carbonyl]oxy}-1-azoniabicyclo[2.2.2]octane Iodide]", "IC50": 3.16}]}]}
